Common to all, as to type: biochemical
In experiment [1] the target is Pim-1 (Homo sapiens (Human), UniProt P11309). The experiment is described as follows: Pim-1 kinase assay. Conditions: 1 mM ATP; read-out: Pim1 IC50. As to the method:
Supplementation of the STOP buffer with beads and stopping the reactions were done under reduced light. Prior to the stopping reactions STOP buffer with beads was preincubated for 1 h in the dark at room temperature. After stopping the reactions, plates were incubated for 1 h in the dark at room temperature before reading on a PHERAstar FS plate reader (BMG Labtech) under reduced light.

Experiment [2] concerns the target Pim-3 (Homo sapiens (Human), UniProt Q86V86). The experiment in a line: Pim-3 kinase assay. Conditions: 1 mM ATP; read-out: Pim3 IC50. The procedure, abridged:
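Human Pim-3 at 1.25 pM phosphorylated […] biotin-BAD peptide with 1 mM ATP for 1 h at 25° C, in pH 7.5 Tris buffer with 5 mM MgCl2 and 5 mM DTT. Reactions were stopped with EDTA buffer containing phospho-Bad (Ser112) antibody and AlphaScreen donor/acceptor beads. Plates were read after 1 h dark incubation at room temperature.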

Experiment [3] deals with Pim-2 (Homo sapiens (Human), UniProt Q9P1W9). The experiment is described as follows: Pim-2 kinase assay. Conditions: 1 mM ATP; read-out: Pim2 IC50. In outline:
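Pim-2 (1 nM) with fluorescein-CREBtide ([…]) and 1 mM ATP in Tris pH 7.5, MgCl2, DTT buffer, 2 h at 25 °C. Stopped with EDTA plus Tb-anti-CREB pSer133 antibody; phosphorylation read by TR-FRET after 30 min.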

SMILES strings stand for the structures.

Consider 17 compounds from patent US9802918B2, “Pyridineamine compounds useful as Pim kinase inhibitors” (Incyte Corporation, priority 2015, dated 2017).

In general, IC50 refers to the concentration at which inhibition is half-maximal.

Pim-2, sequence (Q9P1W9 whole entry): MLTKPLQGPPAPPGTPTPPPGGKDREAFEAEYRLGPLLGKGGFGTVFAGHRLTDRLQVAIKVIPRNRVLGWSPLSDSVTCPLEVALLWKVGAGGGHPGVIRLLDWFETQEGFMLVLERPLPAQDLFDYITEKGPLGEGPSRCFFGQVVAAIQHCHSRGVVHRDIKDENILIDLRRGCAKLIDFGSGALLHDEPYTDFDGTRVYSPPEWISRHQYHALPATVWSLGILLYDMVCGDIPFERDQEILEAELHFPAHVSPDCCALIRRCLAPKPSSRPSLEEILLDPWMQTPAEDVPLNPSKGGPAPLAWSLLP
Pim-1, sequence (P11309 whole entry): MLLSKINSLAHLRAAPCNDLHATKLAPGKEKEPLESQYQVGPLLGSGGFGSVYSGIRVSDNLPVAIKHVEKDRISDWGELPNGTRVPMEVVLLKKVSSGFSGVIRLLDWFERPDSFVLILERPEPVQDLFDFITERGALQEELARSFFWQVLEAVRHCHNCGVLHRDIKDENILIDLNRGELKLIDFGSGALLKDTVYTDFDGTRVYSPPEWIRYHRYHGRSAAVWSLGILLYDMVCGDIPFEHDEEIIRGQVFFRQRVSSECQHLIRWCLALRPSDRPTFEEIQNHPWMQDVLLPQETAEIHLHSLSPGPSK

Regarding `C[C@H]1CN(c2ccncc2NCc2ccc(F)c(-c3c(F)cc(C4(O)CC4)cc3F)n2)C[C@@H](N)[C@@H]1O` [Example 8, (3R,4R,5S)-3-Amino-1-{3-[({6-[2,6-difluoro-4-(1-hydroxycyclopropyl)phenyl]-5-fluoropyridin-2-yl}methyl)amino]pyridin-4-yl}-5-methylpiperidin-4-ol], the IC50 in experiment [1] is below 10 nM; in experiment [2], at most 10 nM; in experiment [3], 100 to 1000 nM.
On to `C[C@H]1CN(c2ccncc2NCc2ccnc(-c3c(F)cccc3F)n2)C[C@@H](N)[C@@H]1O` [Example 30, (3R,4R,5S)-3-Amino-1-[3-({[2-(2,6-difluorophenyl)pyrimidin-4-yl]methyl}amino)pyridin-4-yl]-5-methylpiperidin-4-ol], for which the IC50 in experiment [1] is 10 to 50 nM; in experiment [2], 10 to 50 nM; in experiment [3], 1000 to 10000 nM.
As for `C[C@@H]1C[C@H](N)CN(c2ccncc2NCc2ccc(F)c(-c3c(F)cc(N4CC[C@@H](F)C4)cc3F)n2)C1` [Example 70, 4-[(3S,5R)-3-Amino-5-methylpiperidin-1-yl]-N-[(6-{2,6-difluoro-4-[(3R)-3-fluoropyrrolidin-1-yl]phenyl}-5-fluoropyridin-2-yl)methyl]pyridin-3-amine], the 50% inhibitory concentration (IC50) in experiment [1] is below 10 nM; in experiment [2], at most 10 nM; in experiment [3], 100 to 1000 nM.
The corresponding values for `C[C@@H]1C[C@H](N)CN(c2ccncc2NCc2ccc(F)c(-c3c(F)cc(N4CCOCC4)cc3F)n2)C1` [Example 33, 4-((3S,5R)-3-Amino-5-methylpiperidin-1-yl)-N-((6-(2,6-difluoro-4-morpholinophenyl)-5-fluoropyridin-2-yl)methyl)pyridin-3-amine] are below 10 nM, at most 10 nM and at most 100 nM.
The corresponding values for `C[C@@H]1C[C@H](N)CN(c2ccncc2NCc2ccc(F)c(-c3c(F)cncc3F)n2)C1` [Example 21, 4-((3S,5R)-3-Amino-5-methylpiperidin-1-yl)-N-((3,3′,5′-trifluoro-2,4′-bipyridin-6-yl)methyl)pyridin-3-amine] are below 10 nM, at most 10 nM and 100 to 1000 nM.
The corresponding values for `COc1cc(F)c(-c2nc(CNc3cnccc3N3C[C@@H](N)[C@H](O)[C@@H](C)C3)ccc2F)c(F)c1` [Example 82, (3R,4R,5S)-3-Amino-1-[3-({[6-(2,6-difluoro-4-methoxyphenyl)-5-fluoropyridin-2-yl]methyl}amino)pyridin-4-yl]-5-methylpiperidin-4-ol] are below 10 nM, at most 10 nM and at most 100 nM.
For `C[C@H]1CN(c2ccncc2NCc2ccc(F)c(-c3c(F)cncc3F)n2)C[C@@H](N)[C@@H]1O` [Example 16, (3R,4R,5S)-3-Amino-5-methyl-1-(3-(((3,3′,5′-trifluoro-[2,4′-bipyridin]-6-yl)methyl)amino)pyridin-4-yl)piperidin-4-ol], the half-maximal inhibitory concentration (IC50) was below 10 nM in experiment [1], at most 10 nM in experiment [2] and 100 to 1000 nM in experiment [3].
On to `C[C@H]1CN(c2ccncc2NCc2ccc(F)c(-c3c(F)cc(CN4CC[C@H](C#N)C4)cc3F)n2)C[C@@H](N)[C@@H]1O` [Example 45, (S)-1-(4-(6-((4-((3R,4R,5S)-3-Amino-4-hydroxy-5-methylpiperidin-1-yl)pyridin-3-ylamino)methyl)-3-fluoropyridin-2-yl)-3,5-difluorobenzyl)pyrrolidine-3-carbonitrile], for which the 50% inhibitory concentration (IC50) is below 10 nM in experiment [1], at most 10 nM in experiment [2] and at most 100 nM in experiment [3].
For `COc1cc(F)c(-c2nc(CNc3cnccc3N3C[C@H](C)C[C@H](N)C3)ccc2F)c(F)c1` [Example 83, 4-[(3S,5R)-3-Amino-5-methylpiperidin-1-yl]-N-{[6-(2,6-difluoro-4-methoxyphenyl)-5-fluoropyridin-2-yl]methyl}pyridin-3-amine], in that order: below 10 nM, at most 10 nM and at most 100 nM.
The corresponding values for `COC1(c2cc(F)c(-c3nc(CNc4cnccc4N4C[C@H](C)C[C@H](N)C4)ccc3F)c(F)c2)CCOCC1` [Example 60, 4-[(3S,5R)-3-Amino-5-methylpiperidin-1-yl]-N-({6-[2,6-difluoro-4-(4-methoxytetrahydro-2H-pyran-4-yl)phenyl]-5-fluoropyridin-2-yl}methyl)pyridin-3-amine] are below 10 nM, at most 10 nM and 100 to 1000 nM.
For `CC(C)c1coc2ccc(CNc3cnccc3N3C[C@H](C)C[C@H](N)C3)nc12` [Example 98, 4-[(3S,5R)-3-Amino-5-methylpiperidin-1-yl]-N-[(3-isopropylfuro[3,2-b]pyridin-5-yl)methyl]pyridin-3-amine], in that order: below 10 nM, at most 10 nM and 100 to 1000 nM.
Turning to `C[C@@H]1C[C@H](N)CN(c2ccncc2NCc2ccc3occ(-c4c(F)cc(CO)cc4F)c3n2)C1` [Example 99, (4-(5-((4-((3S,5R)-3-amino-5-methylpiperidin-1-yl)pyridin-3-ylamino)methyl)furo[3,2-b]pyridin-3-yl)-3,5-difluorophenyl)methanol], the figures for the IC50 in experiment [1], in experiment [2] and in experiment [3] were below 10 nM, at most 10 nM and at most 100 nM, respectively.
For `C[C@@H]1C[C@H](N)CN(c2ccncc2NCc2ccc3occ(-c4ccc(CO)cc4F)c3n2)C1` [Example 100, (4-(5-((4-((3S,5R)-3-amino-5-methylpiperidin-1-yl)pyridin-3-ylamino)methyl)furo[3,2-b]pyridin-3-yl)-3-fluorophenyl)methanol], in that order: below 10 nM, at most 10 nM and at most 100 nM.
As for `C[C@@H]1C[C@H](N)CN(c2ccncc2NCc2ccc3ccc(-c4ccn5ccnc5c4)cc3n2)C1` [Example 92, 4-[(3S,5R)-3-Amino-5-methylpiperidin-1-yl]-N-[(7-imidazo[1,2-a]pyridin-7-ylquinolin-2-yl)methyl]pyridin-3-amine], the concentration for half-maximal inhibition (IC50) was below 10 nM in experiment [1], at most 10 nM in experiment [2] and 100 to 1000 nM in experiment [3].
For `C[C@H]1CN(c2ccncc2NCc2ccc(F)c(-c3c(F)cc(N4CCOCC4)cc3F)n2)C[C@@H](N)[C@@H]1O` [Example 32, (3R,4R,5S)-3-Amino-1-(3-(((6-(2,6-difluoro-4-morpholinophenyl)-5-fluoropyridin-2-yl)methyl)amino)pyridin-4-yl)-5-methylpiperidin-4-ol], in that order: below 10 nM, at most 10 nM and at most 100 nM.
Take `C[C@@H]1C[C@H](N)CN(c2ccncc2NCc2ccc(F)c(-c3c(F)cccc3F)n2)C1` [Example 19, 4-[(3S,5R)-3-Amino-5-methylpiperidin-1-yl]-N-{[6-(2,6-difluorophenyl)-5-fluoropyridin-2-yl]methyl}pyridin-3-amine]: the figures for the IC50 in experiment [1], in experiment [2] and in experiment [3] were below 10 nM, at most 10 nM and at most 100 nM, respectively.
For `C[C@@H]1C[C@H](N)CN(c2ccncc2NCc2ccc(F)c(-c3c(F)ccc(C4(O)CC4)c3F)n2)C1` [Example 11, 1-(3-(6-((4-((3S,5R)-3-Amino-5-methylpiperidin-1-yl)pyridin-3-ylamino)methyl)-3-fluoropyridin-2-yl)-2,4-difluorophenyl)cyclopropanol], in that order: below 10 nM, at most 10 nM and 100 to 1000 nM.
